The values that follow come from patent US10174038B2, “Compounds and methods for antiviral treatment” (Gilead Sciences, Inc., priority 2012, dated 2019).

The subject of this experiment is RSV strain A2. Description: RSV antiviral activity, in vitro cytoprotection assay in Hep2 cells. It is filed as cell-based, Respiratory Syncytial Virus (RSV). The following applies: human respiratory syncytial virus, HEp-2; 0.5 μM compound; RSV-induced cytopathic effect in Hep2 cells; % inhibition calculated from fitted 4-parameter dose response curve, normalized to 0% and 100%; read-out: Percent inhibition at 0.5 μM. On the procedure: Antiviral activity against RSV was determined using an in vitro cytoprotection assay in Hep2 cells. […] The method used was similar to methods previously described in published literature (Chapman et al., Antimicrob Agents Chemother. 2007, 51(9):3346-53.)
Hep2 cells were obtained from ATCC (Manassas, Va.) and maintained in MEM media supplemented with 10% fetal bovine serum and penicillin/streptomycin. Cells were passaged twice a week and kept at subconfluent stage. Commercial stock of RSV strain A2 (Advanced Biotechnologies, Columbia, Md.) was titered before compound testing to determine the appropriate dilution of the virus stock that generated desirable cytopathic effect in Hep2 cells.
For antiviral tests, Hep2 cells were seeded into 96-well plates 24 hours before the assay at a density of 3,000 cells/well. On a separate 96 well plate, compounds to be tested were serially diluted in cell culture media. Eight concentrations in 3-fold serial dilution increments were prepared for each tested compound and 100 uL/well of each dilution was transferred in duplicate onto plates with seeded Hep2 cells. Subsequently, appropriate dilution of virus stock previously determined by titration was prepared in cell culture media and 100 uL/well was added to test plates containing cells and serially diluted compounds. Each plate included three wells of infected untreated cells and three wells of uninfected cells that served as 0% and 100% virus inhibition control, respectively. Following the infection with RSV, testing plates were incubated for 4 days in a tissue culture incubator. After the incubation, RSV-induced cytopathic effect was determined using a Cell TiterGlo reagent (Promega, Madison, Wis.) followed by a luminescence read-out. The percentage inhibition was calculated for each tested concentration relative to the 0% and 100% inhibition controls and the EC50 value for each compound was determined by non-linear regression as a concentration inhibiting the RSV-induced cytopathic effect by 50%. Ribavirin (purchased from Sigma, St. Louis, Mo.) was used as a positive control for antiviral activity.
Compounds were also tested for antiviral activity against RSV in Hep2 cells using a 384 well format. Compounds were diluted in DMSO using a 10-step serial dilution in 3-fold increments via automation in 4 adjacent replicates each. Eight compounds were tested per dilution plate. 0.4 uL of diluted compounds were then stamped via Biomek into 384-well plates (Nunc 142761 or 164730 w/lid 264616) containing 20 μL of media (Mediatech Inc. MEM supplemented with Glutamine, 10% FBS and Pen/Strep). DMSO and a suitable positive control compound, such as 80 μM GS-329467 or 10 μM 427346 was used for the 100% and 0% cell killing controls, respectively.
Hep2 cells (1.0×10^5 cells/ml) were prepared as above in batch to at least 40 mls excess of the number of sample plates (8 mls cell mix per plate) and infected with vendor supplied (ABI) RSV strain A2 to arrive at an MOI of 1:1000 (virus:cell #) or 1:3000 (vol virus:cell vol). Immediately after addition of virus, the RSV infected Hep2 cell suspension was added to each stamped 384-well plate at 20 μl per well using a uFlow dispenser, giving a final volume of 40 μL/well, each with 2000 infected cells. The plates were then incubated for 5 days at 37° C. and 5% CO2. Following incubation, the plates were equilibrated to room temperature in a biosafety cabinet hood for 1.5 hrs and 40 μL of Cell-Titer Glo viability reagent (Promega) was added to each well via uFlow. Following a 10-20 minute incubation, the plates were read using an EnVision or Victor Luminescence plate reader (Perkin-Elmer). The data was then uploaded and analyzed on the Bioinformatics portal under the RSV Cell Infectivity and 8-plate EC50-Hep2-384 or 8-plate EC50-Hep2-Envision protocols. […]
One may read the inhibition as the drop in the measured response relative to a control, in per cent. As to `Cc1cnc(N)c(C(=O)N2CCCC[C@H]2c2cc3nc(N4CC[C@H](N)C4)c(C)cn3n2)c1` [Compound 14], the inhibition at 0.5 µM was 97%. With `CN[C@@H]1CCN(c2cc(C)n3nc([C@@H]4CCCCN4C(=O)c4cc(Cl)ccc4NS(C)(=O)=O)cc3n2)C1` [Compound 84], the inhibition at 0.5 µM is 95%. With `Cc1cc(NS(C)(=O)=O)c(C(=O)N2CCCC[C@H]2c2cc3nc(N4CC[C@H](N)C4)c(C)cn3n2)s1` [Compound 12] the figure was 100%; with `CN1CCN(c2cc(N3CC(N)C3)nc3cc([C@@H]4CCCCN4C(=O)c4cc(Cl)ccc4NS(C)(=O)=O)nn23)CC1` [Compound 53], 99%. With `Cc1ccc(NS(C)(=O)=O)c(C(=O)N2CCCC[C@H]2c2nc3cc(C)cc(C)n3n2)c1` [Compound 110] the figure was 60%. In the case of `Cc1cn2nc([C@@H]3CCCCN3C(=O)c3cc(Cl)ccc3NC(=O)OCC(F)(F)F)cc2nc1N1CC[C@H](N)C1` [Compound 63], the inhibition at 0.5 µM was 100%. For `Cc1cc(C2CC2)nc2cc([C@@H]3CCCCN3C(=O)c3ccccc3NS(C)(=O)=O)nn12` [Compound 46], the inhibition at 0.5 µM was 97%. To `Cc1cccnc1C(=O)N1CCCC[C@H]1c1cc2nc(N3CC[C@H](N)C3)c(C)cn2n1` [Compound 6] belongs 100%; to `Cc1cn2nc([C@@H]3CCCCN3C(=O)C(NS(C)(=O)=O)c3ccccc3Br)cc2nc1N1CC[C@H](N)C1` (stereo partly shown) [Compound 33], 100%; to `COC(=O)N[C@H](C(=O)N1CCCC[C@H]1c1cc2nc(N3CC[C@H](N)C3)c(C)cn2n1)C1CC1` [Compound 102], 99%. To `Cc1cn2nc([C@@H]3CCCCN3C(=O)c3cc(Cl)ccc3NS(C)(=O)=O)cc2nc1N1CC(F)(F)C1` [Compound 98] belongs 100%; to `Cc1cn2nc([C@@H]3CCCCN3C(=O)C(NS(C)(=O)=O)c3ccccc3Br)cc2nc1N1C[C@@H](C#N)[C@@H](O)C1` (stereo partly shown) [Compound 23], 100%; to `CCc1ccc(NS(C)(=O)=O)c(C(=O)N2CCCC[C@H]2c2cc3nc(C4CC4)cc(N4CCOCC4)n3n2)c1` [Compound 80], 99%. To `Cc1cn2nc([C@@H]3CCCCN3C(=O)c3cc(Cl)ccc3NC(=O)C(F)F)cc2nc1N1CC[C@H](N)C1` [Compound 65] belongs 100%; to `CS(=O)(=O)Nc1ccc(Cl)cc1C(=O)N1CCCC[C@H]1c1cc2nc(N3CCC3)cc(N3CCN[C@@H](CO)C3)n2n1` [Compound 19], 100%; to `Cc1cn2nc([C@@H]3CCCCN3C(=O)C(NS(C)(=O)=O)c3ccccc3F)cc2nc1N1CC[C@H](N)C1` (stereo partly shown) [Compound 100], 100%. Take `CS(=O)(=O)Nc1ccc(Cl)cc1C(=O)N1CCCC[C@H]1c1cn2nc(N3CC(O)C3)ccc2n1` [Compound 120]: the inhibition at 0.5 µM was 100%. On to `Cc1cn2nc([C@@H]3CCCCN3C(=O)c3cc(Cl)ccc3CNS(C)(=O)=O)cc2nc1N1CC[C@H](N)C1` [Compound 36], for which the inhibition at 0.5 µM was 100%. Regarding `Cc1cc(C2CC2)nc2cc([C@@H]3CCCCN3C(=O)c3cc(F)cc(Cl)c3NS(C)(=O)=O)nn12` [Compound 74], the inhibition at 0.5 µM is 97%. As to `Cc1cn2nc([C@@H]3CCCCN3C(=O)c3ncccc3Cl)cc2nc1N1CC[C@H](N)C1` [Compound 18], the inhibition at 0.5 µM was 100%.

Regarding `CS(=O)(=O)Nc1ccc(Cl)cc1C(=O)N1CCCC[C@H]1c1cc2nc(C3CC3)ccn2n1` [Compound 85], the inhibition at 0.5 µM was 86%.

As to `Cc1nc2cc([C@@H]3CCCCN3C(=O)c3cc(F)ccc3NS(C)(=O)=O)nn2c(C)c1C` [Compound 58], the inhibition at 0.5 µM is 89%. On to `Cc1cn2nc([C@@H]3CCCCN3C(=O)c3cc(Cl)ccc3NC(=O)c3ccccc3)cc2nc1N1CC[C@H](N)C1` [Compound 62], for which the inhibition at 0.5 µM was 100%. With `CC1CN(c2cc(N3CCOCC3)n3nc([C@@H]4CCCCN4C(=O)c4cc(Cl)ccc4NS(C)(=O)=O)cc3n2)C1` [Compound 1] the figure was 95%; with `Cc1cc(N2CC[C@H](N)C2)nn2cc([C@@H]3CCCCN3C(=O)c3cc(Cl)ccc3NS(C)(=O)=O)nc12` [Compound 108], 100%. Turning to `Cc1ccc(N2CCCS2(=O)=O)c(C(=O)N2CCCC[C@H]2c2cc3nc(N4CC[C@H](N)C4)c(C)cn3n2)c1` [Compound 11], the inhibition at 0.5 µM was 100%. With `Cc1cc(C)nc(C(=O)N2CCCC[C@H]2c2cc3nc(N4CC[C@H](N)C4)c(C)cn3n2)c1` [Compound 66] the figure was 100%. In the case of `CS(=O)(=O)Nc1ccc(Cl)cc1C(=O)N1CCCC[C@H]1c1cc2nc(N3CCCC3)cc(N3CCOCC3)n2n1` [Compound 90], the inhibition at 0.5 µM was 100%. To `Cc1cc(N2CC[C@H](N)C2)nc2cc([C@@H]3CCCCN3C(=O)c3cc(Cl)ccc3NS(C)(=O)=O)nn12` [Compound 44] belongs 100%; to `CNc1c(C)c(C)nc2cc([C@@H]3CCCCN3C(=O)c3cc(F)cc(Cl)c3NS(C)(=O)=O)nn12` [Compound 24], 91%; to `O=C(c1ccccc1C(F)(F)F)N1CCCC[C@H]1c1cc2nc(N3CC(O)C3)cc(N3CC(O)C3)n2n1` [Compound 50], 100%.

For `CS(=O)(=O)Nc1ccc(Cl)cc1C(=O)N1CCCC[C@H]1c1cc2nc(N3CC[C@@H](F)C3)cc(N3CCOCC3)n2n1` [Compound 93], the inhibition at 0.5 µM is 56%. To `CNC1CCN(c2cc(N3CCOCC3)n3nc([C@@H]4CCCCN4C(=O)c4cc(Cl)ccc4NS(C)(=O)=O)cc3n2)C1` (stereo partly shown) [Compound 94] belongs 89%; to `Cc1cn2nc([C@@H]3CCCCN3C(=O)c3cccc(C)c3O)cc2nc1N1CC[C@H](N)C1` [Compound 16], 100%. With `CS(=O)(=O)Nc1ccc(Cl)cc1C(=O)N1CCCC[C@H]1c1cn2nc(N3CC[C@H](N)C3)ccc2n1` [Compound 117] the figure was 100%; with `Cc1cn2nc([C@@H]3CCCCN3C(=O)c3ccccc3OC(F)(F)F)cc2nc1N1CC[C@H](N)C1` [Compound 9], 100%; with `CNc1cc(N2CCOCC2)n2nc([C@@H]3CCCCN3C(=O)c3cc(Cl)ccc3NS(C)(=O)=O)cc2n1` [Compound 91], 91%. For `Cc1cn2nc([C@@H]3CCCCN3C(=O)c3cc(Cl)ccc3NS(C)(=O)=O)cc2nc1N1CC(C#N)C1` [Compound 97], the inhibition at 0.5 µM is 97%.

In the case of `Cc1cc(C2CC2)nc2cc([C@@H]3CCCCN3C(=O)c3cc(Cl)cc(Cl)c3NS(C)(=O)=O)nn12` [Compound 26], the inhibition at 0.5 µM was 97%. To `Cc1cn2nc([C@@H]3CCCCN3C(=O)c3cc(Cl)ccc3NS(C)(=O)=O)cc2nc1N[C@@H](C)CO` [Compound 2] belongs 97%; to `CS(=O)(=O)Nc1ccc(Cl)cc1C(=O)N1CCCC[C@H]1c1cc2nc(N3CCC3)cc(N3CCCC(N)C3)n2n1` (stereo partly shown) [Compound 70], 100%. Take `Cc1cn2nc([C@@H]3CCCCN3C(=O)c3cccc(C(F)(F)F)n3)cc2nc1N1CC[C@H](N)C1` [Compound 67]: the inhibition at 0.5 µM was 99%. With `Cc1ccc(NS(C)(=O)=O)c(C(=O)N2CCCC[C@H]2c2cc3nc(C)c(C)cn3n2)c1` [Compound 81] the figure was 100%; with `CS(=O)(=O)Nc1ccc(Cl)cc1C(=O)N1CCCC[C@H]1c1cc2ccc(N3CCC3)nn2c1` [Compound 111], 56%; with `Cc1cc(C2CC2)nc2cc([C@@H]3CCCCN3C(=O)c3cc(Cl)ccc3N)nn12` [Compound 77], 94%. Consider `Cc1ccc(NS(C)(=O)=O)c(C(=O)N2CCCC[C@H]2c2cc3cc(C)cc(C)n3n2)c1` [Compound 105], for which the inhibition at 0.5 µM is 96%.
